Read-outs that look alike come from different tables or passages of the source.
Assays:
[1] = tested on: constitutive ERK phosphorylation in WiDr cells; experiment: WiDr AlphaLISA SureFire pERK1/2 cellular assay; type: cell-based, human; settings: Homo sapiens, read-out: pERK WiDr (2 hr) Abs pIC50 (converted)
[2] = Plasma protein binding assay, human plasma (hPPB); type: in vitro ADME; settings: 5 μM
Outline: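 Equilibrium dialysis of 5 μM compound in previously frozen human or mouse plasma against phosphate buffer, 4 h at 37 °C. Both chambers quantified by LC-MS/MS; % free = (1−((PC−PF)/PC))×100.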

[3] = tested on: RAF dimers in HCT-116 cells; experiment: HCT-116 AlphaLISA SureFire pERK1/2 cellular assay (dimer); type: cell-based; settings: Homo sapiens, HCT-116, 1 hr
Outline: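 HCT-116 (KRAS G13D) cells, 30,000/well, pretreated 1 h with 1 μM Encorafenib to induce RAF dimers, washed, then dosed 1 h at 37° C with compound (10-point, top 10 μM, 1/2 log steps) in growth medium. pERK1/2 (T202/Y204) measured by AlphaLISA SureFire; absolute IC50 versus DMSO control.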

[4] = Microsomal stability assay, human liver microsomes (HLM); type: in vitro ADME; settings: 0.5 mg/mL protein, 1 μM substrate
Outline: (§1)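 Half-life and CLint come from the ln(% remaining)–time slope, with remaining compound quantified by LC-MS/MS after ice-cold solvent quench of timed samples. Incubations used 1 μM test compound and 0.5 mg·mL^−1 human or mouse liver microsomal protein at 37° C.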

[5] = Microsomal stability assay, mouse liver microsomes (MLM); type: in vitro ADME; settings: 0.5 mg/mL protein, 1 μM substrate
Outline: as §1

[6] = equilibrium dialysis 4 hours at 37° C.
[7] = HCT116 cells, dimer, read-out: pERK HCT116 dimer (1 hr) plC50 (converted)

| SMILES | IC50 ([1]; WiDr cells, 2 hr, Abs) | hPPB (% free) [2, 6] | IC50 [3, 7] | microsomal CLint at 1 μM ([4]; 37° C.) | microsomal CLint at 1 μM ([5]; 37° C.) | MLM (CLint) ([5]; 37° C.) | IC50 ([1]; WiDr cells, 2 hr, absolute IC50) | hPPB (% free) ([2]; equilibrium dialysis 4 hours 37° C.) | IC50 ([3]; HCT116 cells pre-dosed with 1 μM Encorafenib, read-out: pERK HCT116 dimer (1 hr) pIC50 (converted)) | microsomal CLint at 1 μM [4] | microsomal CLint at 1 μM [5] | IC50 ([1]; WiDr, 2 h) |
| --- | --- | --- | --- | --- | --- | --- | --- | --- | --- | --- | --- | --- |
| Cn1ncc2ccc(-c3c[nH]c(C4COc5ccc(Oc6ccnc7c6CCC(=O)N7)cc5C4)n3)cc21 (stereo not shown) [Compound 130, 5-[3-[4-(1-methylindazol-6-yl)-1H-imidazol-2-yl]chroman-6-yl]oxy-3,4-dihydro-1H-1,8-naphthyridin-2-one] | 603 nM | 0.1 % free | 166 nM | 23.6 µL/min/mg | 23.5 µL/min/mg | – | – | – | – | – | – | – |
| Cc1c[nH]c(-c2cc(Oc3ccc4c(c3)CC(c3nc(-c5ccccc5)c[nH]3)CO4)ccn2)n1 (stereo not shown) [Compound 143, 2-(4-methyl-1H-imidazol-2-yl)-4-[3-(4-phenyl-1H-imidazol-2-yl)chroman-6-yl]oxy-pyridine] | 302 nM | <0.1 % free | 575 nM | 36.1 µL/min/mg | 86.1 µL/min/mg | – | – | – | – | – | – | – |
| O=C(Nc1cc(Oc2ccc3c(c2)CC(c2nc(-c4ccc(F)cc4)c[nH]2)CO3)ccn1)C1CC1 (stereo not shown) [Compound 155, N-[4-[3-[4-(4-fluorophenyl)-1H-imidazol-2-yl]chroman-6-yl]oxy-2-pyridyl]cyclopropanecarboxamide] | 102 nM | 0.1 % free | 72.4 nM | 28.9 µL/min/mg | – | 277 µL/min/mg | – | – | – | – | – | – |
| O=C1CCc2c(Oc3ccc4c(c3)CN(C(=O)Nc3cccc(C(F)(F)F)c3)CC4)ccnc2N1 [Compound 50] | – | – | – | – | – | – | 97.7 nM | 1.2 % free | 64.6 nM | 70.4 µL/min/mg | 79 µL/min/mg | – |
| O=C(Nc1cc(Oc2ccc3c(c2)CC(c2nc(-c4ccccc4)c[nH]2)CO3)ncn1)C1CC1 (stereo not shown) [Compound 151, N-[6-[3-(4-phenyl-1H-imidazol-2-yl)chroman-6-yl]oxypyrimidin-4-yl]cyclopropanecarboxamide] | – | 0.21 % free | 204 nM | 18.3 µL/min/mg | 161 µL/min/mg | – | – | – | – | – | – | 224 nM |

Source: patent US12304912B2, “Fused bicyclic RAF inhibitors and methods for use thereof” (Jazz Pharmaceuticals Ireland Limited, priority 2020, dated 2025)
